Reference: patent US7863446B2, “Heterocycles” (Orchid Research Laboratories Limited, priority 2006, dated 2011)

Columns and labels:
[1] = test system: TNF-α; experiment: In vitro measurement of TNF-α in human PBMC (LPS stimulated); format: cell-based
How it was run: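 Healthy-volunteer PBMC (0.5 million/well) in RPMI were pre-incubated with compound 15 min at 37 °C. They were then stimulated with E. coli B4 LPS 1 μg/ml for 18 h at 37 °C, 5% CO2. TNF-α in culture medium was measured by ELISA.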

[2] = test system: TNF-α; experiment: LPS induced sepsis for measurement of TNF-α inhibition in mice; format: in vivo; details: Mus musculus; TNF alpha inhibition in mice sepsis model
Experimental: LPS Induced Sepsis for Measurement of TNF-α Inhibition in Mice
The LPS induced sepsis model in mice was performed as described by Les sekut et al (J Lab Clin Med 1994; 124:813-20). Female Swiss albino mice were selected and the body weights were equivalent within each group. The mice were fasted for 20 hours with free access to water. The mice were dosed orally with the test compound suspended in vehicle containing 0.5% Tween 80 in 0.25% Carboxy-methylcellulose sodium salt. The control mice were administered the vehicle alone. After 30 minutes of oral dosing, mice were injected with 500 μg of Lipopolysaccharide (Escherichia coli, LPS: B4 from Siga) in phosphate buffer saline solution into the intraperitoneal cavity of the mice. After 90 minutes of LPS administration mice were bled via retro-orbital sinus puncture. Blood samples were stored overnight at 4° C. Serum samples were collected by centrifuging the samples at 4000 rpm for 15 minutes at 4° C. Immediately the serum samples were analysed for TNF-α levels using commercially available mouse TNF-α ELISA kit (Amersham Biosciences) and assay was performed by the manufacturer instruction.
ED50 Measurement of TNF alpha Inhibition in Mice Sepsis Model

[3] = test system: Male Balbc mice; experiment: IBD-DSS model (DSS induced colitis); format: in vivo; details: Day 1 to 6, mice
Experimental: Inhibitory Activity in IBD-DSS Model
DSS Induced colitis test was performed as described by Axelsson et al., 1998. Male Balbc mice were selected in the age of 7-8 weeks for the study. Colitis in mice was induced by providing DSS (2%) in the drinking water from day 1 to 6. Mice were dosed from Day 1 to 6 with test compound suspended in vehicle containing 0.25% carboxymethyl cellulose and 0.5% Tween 80. The control animals received vehicle alone. Body weight and disease activity index was recorded daily during the experiment. After 6 days of treatment, animals were sacrificed; colon weight and colon length was recorded.

[4] = test system: Female Balb C; experiment: Psoriasis model (oxazolone induced dermatitis in mice); format: in vivo; details: topical on the ear, 24 hours after oxazolone
Experimental: Inhibitory Activity in Psoriasis Model
Oxazolone induced dermatitis in mice was performed as described in the literature. Female Balb C were selected in the age of 6-7 weeks for the study and 20-25 g. Mice were sensitized with oxazolone (15%) from Day 1 to day 6 by applying it on the shaved abdomen. Elicitation was done with oxazolone (2%) on the ear on day 7. Test compounds were applied topically on the ear 15 minutes and 6 hours post oxazolone application on day 7. 24 hours after oxazolone application, ear thickness is measured and ear were excised under anesthesia and weighed.

NS(=O)(=O)c1cccc(-c2c(-c3ccc(F)cc3)nc(C(F)(F)F)nc2-n2ccnc2)c1 [Example 80, 3-[4-(4-Fluorophenyl)-6-(1H-imidazol-1-yl)-2-(trifluoromethyl)pyrimidin-5-yl]benzenesulfonamide]
inhibition at 1 µM ([1]; 1 μM, NA = No activity, read-out: TNF-α Inhibition (%) at Conc. (1 μM)): 30%
inhibition at 10 µM ([1]; 10 μM, read-out: TNF-α Inhibition (%) at Conc. (10 μM)): 75.3%
ED50 [2]: 2.13 mg/kg
IBD-DSS Model % Inhibition of DAI at 50 mg/kg [3]: 35.94%
Psoriasis-acute-Oxazolone induced dermatitis % inhibition Ear Thick [4]: 19.2%
Psoriasis-acute-Oxazolone induced dermatitis % inhibition Ear Wt [4]: 18.9%
